The subject of data set [1] is thrombus formations in the occluded vena cava. The data set can be described thus: thrombolytic activity on already formed vena cava thrombus versus urokinase. The format is in vivo, rat. Here is the method:
DS administered intravenously is active at a dose of 0.1 mg/kg in inhibiting 90% of a Jugular vein thrombosis induced by Protein Complex Concentrate (PCC) in the rabbit, and in inhibiting 70% of a thrombosis induced by a PCC/RVV (Russel Viper Venom) combination; (Fareed J. et al.; Sem. Thromb. Haemost. 11, 155-157 (1985)).
With dermatan sulphate fractions similar to the one coded 1.25M as obtained in Example 1b) comparative studies were made on thrombolytic activity versus urokinase. Four groups of 10 rats each were anaesthetised with 1 g/kg of urethane administered in endoperitoneal physiological solution by endoperitoneal route. The vena cava of the rats was subjected to ligature in line with the Reyers test (Thromb. Res. 18, 699, 1980), and two hours after the ligature 5 mg/kg/i.v. of DS and 5000 U/kg of Ukidan (Urokinase-Serono) were administered. After eight hours the thrombus formations in the occluded vein were removed.

Another data set deals with bleeding time. As to conditions: in vivo.

As to Urokinase, the “reduction in thrombus weight” value in data set [1] (bolus then 6 hours infusion: DS 2.5 mg/kg + 1.25 mg/kg/hour, urokinase 2500 U/kg + 1250 U/kg/hour, relative to untreated controls) was found to be 70.2%. In addition, in data set [1] (treated two hours after ligature, 5 mg/kg i.v. DS or 5000 U/kg Ukidan, thrombus removed eight hours after ligature), the “mean thrombus weight” value came out at 2.2 mg.

As to dermatan sulphate [DS], the “effect on bleeding time” value in the data set with bleeding time is listed as “very little effect”.

These data come from patent US5547944A, “Dermatan sulphate possessing a thrombolytic activity, and pharmaceutical forms containing it” (Opocrin S.p.A., priority 1991, dated 1996).
